{
  "source": "patent US12077503B2",
  "about": "“Substituted cyclic amides and their use as herbicides” (FMC CORPORATION, priority 2015, dated 2024)",
  "type_in_all_cases": "in vivo",
  "key": {"[1]": {"test_system": "barnyardgrass (Echinochloa crus-galli)", "assay": "Test G Pre-Emergence Protocol", "conditions": "Echinochloa crus-galli, pre-emergence, 312 h, evaluated after 13 days", "method_in_brief": "(§1)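 Glasshouse pre-emergence test: soil-sown seeds, sprayed after 1 d at 15.625, 62.5 or 250 g/ha. Conditions 24/16° C day/night, 14 h light, 65% humidity, watering twice daily. Rating 13 d post-spray (100 = total damage).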"}, "corn (Zea mays) [2]": {"test_system": "corn (Zea mays)", "assay": "Test G Pre-Emergence Protocol", "conditions": "Zea mays, pre-emergence, 312 h, evaluated after 13 days", "method_in_brief": "as §1"}, "[3]": {"test_system": "ivy-leaved morning glory (Ipomoea hederacea)", "assay": "Test G Pre-Emergence Protocol", "conditions": "Ipomoea, pre-emergence, 312 h, evaluated after 13 days", "method_in_brief": "as §1"}, "[4]": {"test_system": "giant foxtail (Setaria faberi)", "assay": "Test G Pre-Emergence Protocol", "conditions": "Setaria faberi, pre-emergence, 312 h, evaluated after 13 days", "method_in_brief": "as §1"}, "[5]": {"test_system": "velvetleaf (Abutilon theophrasti)", "assay": "Test G Pre-Emergence Protocol", "conditions": "Abutilon theophrasti, pre-emergence, 312 h, evaluated after 13 days", "method_in_brief": "as §1"}, "[6]": {"test_system": "redroot pigweed (Amaranthus retroflexus)", "assay": "Test G Pre-Emergence Protocol", "conditions": "Amaranthus retroflexus, pre-emergence, 312 h, evaluated after 13 days", "method_in_brief": "as §1"}, "[7]": {"test_system": "barnyardgrass (Echinochloa crus-galli)", "assay": "Test G Post-Emergence Protocol", "conditions": "Echinochloa crus-galli, post-emergence, 312 h", "method_in_brief": "(§2)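 Sow in soil; grow 8 d (24/16 °C, 14 h light, 65% humidity); spray 15.625/62.5/250 g/ha in acetone:water 50:50 + 0.5% Tween 20; grow on, water twice daily; score damage 0–100 at 13 d.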"}, "corn (Zea mays) [8]": {"test_system": "corn (Zea mays)", "assay": "Test G Post-Emergence Protocol", "conditions": "Zea mays, post-emergence, 312 h", "method_in_brief": "as §2"}, "[9]": {"test_system": "ivy-leaved morning glory (Ipomoea hederacea)", "assay": "Test G Post-Emergence Protocol", "conditions": "Ipomoea, post-emergence, 312 h", "method_in_brief": "as §2"}, "[10]": {"test_system": "giant foxtail (Setaria faberi)", "assay": "Test G Post-Emergence Protocol", "conditions": "Setaria faberi, post-emergence, 312 h", "method_in_brief": "as §2"}, "[11]": {"test_system": "velvetleaf (Abutilon theophrasti)", "assay": "Test G Post-Emergence Protocol", "conditions": "Abutilon theophrasti, post-emergence, 312 h", "method_in_brief": "as §2"}, "[12]": {"test_system": "redroot pigweed (Amaranthus retroflexus)", "assay": "Test G Post-Emergence Protocol", "conditions": "Amaranthus retroflexus, post-emergence, 312 h", "method_in_brief": "as §2"}},
  "data": [
    {"smiles": "CN1C[C@@H](c2cnc(Cl)c(Cl)c2)[C@H](C(=O)Nc2cccc(F)c2F)C1=O", "note": "(racemic) [Compound 1487]", "values": [
      {"measurement": "pest or weed control at 15.625 g/ha", "setting": "[1]; 15.625 g ai/ha, read-out: Barnyard grass damage rating (100=total damage to plant; 0=no damage to plant)", "result": 30, "unit": "%"},
      {"measurement": "pest or weed control at 62.5 g/ha", "setting": "[1]; 62.5 g ai/ha, 100=total damage to plant, 0=no damage to plant, read-out: plant damage rating, Barnyardgrass", "result": 90, "unit": "%"},
      {"measurement": "pest or weed control at 250 g/ha", "setting": "[1]; 250 g ai/ha, read-out: Barnyardgrass damage rating (100=total damage to plant; 0=no damage to plant)", "result": 80, "unit": "%"},
      {"measurement": "plant injury at 15.625 g/ha", "setting": "corn (Zea mays) [2]; 15.625 g ai/ha, read-out: Corn damage rating (100=total damage to plant; 0=no damage to plant)", "result": 10, "unit": "%"},
      {"measurement": "plant injury at 62.5 g/ha", "setting": "corn (Zea mays) [2]; 62.5 g ai/ha, 100=total damage to plant, 0=no damage to plant, read-out: plant damage rating, Corn", "result": 20, "unit": "%"},
      {"measurement": "plant injury at 250 g/ha", "setting": "corn (Zea mays) [2]; 250 g ai/ha, read-out: Corn damage rating (100=total damage to plant; 0=no damage to plant)", "result": 70, "unit": "%"},
      {"measurement": "pest or weed control at 15.625 g/ha", "setting": "[3]; 15.625 g ai/ha, read-out: Morning-glory, Ivy-leaved damage rating (100=total damage to plant; 0=no damage to plant)", "result": 0, "unit": "%"},
      {"measurement": "pest or weed control at 62.5 g/ha", "setting": "[3]; 62.5 g ai/ha, 100=total damage to plant, 0=no damage to plant, read-out: plant damage rating, Morningglory, Ivy-leaved", "result": 0, "unit": "%"},
      {"measurement": "pest or weed control at 250 g/ha", "setting": "[3]; 250 g ai/ha, read-out: Morningglory, Ivy-leaved damage rating (100=total damage to plant; 0=no damage to plant)", "result": 20, "unit": "%"},
      {"measurement": "pest or weed control at 15.625 g/ha", "setting": "[4]; 15.625 g ai/ha, read-out: Foxtail, Giant damage rating (100=total damage to plant; 0=no damage to plant)", "result": 80, "unit": "%"},
      {"measurement": "pest or weed control at 62.5 g/ha", "setting": "[4]; 62.5 g ai/ha, 100=total damage to plant, 0=no damage to plant, read-out: plant damage rating, Foxtail, Giant", "result": 90, "unit": "%"},
      {"measurement": "pest or weed control at 250 g/ha", "setting": "[4]; 250 g ai/ha, read-out: Foxtail, Giant damage rating (100=total damage to plant; 0=no damage to plant)", "result": 90, "unit": "%"},
      {"measurement": "pest or weed control at 15.625 g/ha", "setting": "[5]; 15.625 g ai/ha, read-out: Velvetleaf damage rating (100=total damage to plant; 0=no damage to plant)", "result": 0, "unit": "%"},
      {"measurement": "pest or weed control at 62.5 g/ha", "setting": "[5]; 62.5 g ai/ha, 100=total damage to plant, 0=no damage to plant, read-out: plant damage rating, Velvetleaf", "result": 0, "unit": "%"},
      {"measurement": "pest or weed control at 250 g/ha", "setting": "[5]; 250 g ai/ha, read-out: Velvetleaf damage rating (100=total damage to plant; 0=no damage to plant)", "result": 30, "unit": "%"},
      {"measurement": "pest or weed control at 15.625 g/ha", "setting": "[6]; 15.625 g ai/ha, read-out: Pigweed, Redroot damage rating (100=total damage to plant; 0=no damage to plant)", "result": 0, "unit": "%"},
      {"measurement": "pest or weed control at 62.5 g/ha", "setting": "[6]; 62.5 g ai/ha, 100=total damage to plant, 0=no damage to plant, read-out: plant damage rating, Pigweed, Redroot", "result": 0, "unit": "%"},
      {"measurement": "pest or weed control at 250 g/ha", "setting": "[6]; 250 g ai/ha, read-out: Pigweed, Redroot damage rating (100=total damage to plant; 0=no damage to plant)", "result": 80, "unit": "%"},
      {"measurement": "pest or weed control at 15.625 g/ha", "setting": "[7]; 15.625 g ai/ha, evaluated after 13 days (100=total damage to plant; 0=no damage to plant), read-out: Barnyardgrass damage rating", "result": 50, "unit": "%"},
      {"measurement": "pest or weed control at 62.5 g/ha", "setting": "[7]; 62.5 g ai/ha, evaluated after 13 days, read-out: Barnyardgrass damage rating (100=total damage to plant; 0=no damage to plant)", "result": 60, "unit": "%"},
      {"measurement": "pest or weed control at 250 g/ha", "setting": "[7]; 250 g ai/ha, evaluated after 13 days, read-out: damage to plant, Barnyardgrass (100=total damage to plant; 0=no damage to plant)", "result": 70, "unit": "%"},
      {"measurement": "plant injury at 15.625 g/ha", "setting": "corn (Zea mays) [8]; 15.625 g ai/ha, evaluated after 13 days (100=total damage to plant; 0=no damage to plant), read-out: Corn damage rating", "result": 20, "unit": "%"},
      {"measurement": "plant injury at 62.5 g/ha", "setting": "corn (Zea mays) [8]; 62.5 g ai/ha, evaluated after 13 days, read-out: Corn damage rating (100=total damage to plant; 0=no damage to plant)", "result": 60, "unit": "%"},
      {"measurement": "plant injury at 250 g/ha", "setting": "corn (Zea mays) [8]; 250 g ai/ha, evaluated after 13 days, read-out: damage to plant, Corn (100=total damage to plant; 0=no damage to plant)", "result": 70, "unit": "%"},
      {"measurement": "pest or weed control at 15.625 g/ha", "setting": "[9]; 15.625 g ai/ha, evaluated after 13 days (100=total damage to plant; 0=no damage to plant), read-out: Morningglory, Ivy-leaved damage rating", "result": 0, "unit": "%"},
      {"measurement": "pest or weed control at 62.5 g/ha", "setting": "[9]; 62.5 g ai/ha, evaluated after 13 days, read-out: Morningglory, Ivy-leaved damage rating (100=total damage to plant; 0=no damage to plant)", "result": 0, "unit": "%"},
      {"measurement": "pest or weed control at 250 g/ha", "setting": "[9]; 250 g ai/ha, evaluated after 13 days, read-out: damage to plant, Morningglory, Ivy-leaved (100=total damage to plant; 0=no damage to plant)", "result": 20, "unit": "%"},
      {"measurement": "pest or weed control at 15.625 g/ha", "setting": "[10]; 15.625 g ai/ha, evaluated after 13 days (100=total damage to plant; 0=no damage to plant), read-out: Foxtail, Giant damage rating", "result": 60, "unit": "%"},
      {"measurement": "pest or weed control at 62.5 g/ha", "setting": "[10]; 62.5 g ai/ha, evaluated after 13 days, read-out: Foxtail, Giant damage rating (100=total damage to plant; 0=no damage to plant)", "result": 70, "unit": "%"},
      {"measurement": "pest or weed control at 250 g/ha", "setting": "[10]; 250 g ai/ha, evaluated after 13 days, read-out: damage to plant, Foxtail, Giant (100=total damage to plant; 0=no damage to plant)", "result": 70, "unit": "%"},
      {"measurement": "pest or weed control at 15.625 g/ha", "setting": "[11]; 15.625 g ai/ha, evaluated after 13 days (100=total damage to plant; 0=no damage to plant), read-out: Velvetleaf damage rating", "result": 0, "unit": "%"},
      {"measurement": "pest or weed control at 62.5 g/ha", "setting": "[11]; 62.5 g ai/ha, evaluated after 13 days, read-out: Velvetleaf damage rating (100=total damage to plant; 0=no damage to plant)", "result": 0, "unit": "%"},
      {"measurement": "pest or weed control at 250 g/ha", "setting": "[11]; 250 g ai/ha, evaluated after 13 days, read-out: damage to plant, Velvetleaf (100=total damage to plant; 0=no damage to plant)", "result": 20, "unit": "%"},
      {"measurement": "pest or weed control at 15.625 g/ha", "setting": "[12]; 15.625 g ai/ha, evaluated after 13 days (100=total damage to plant; 0=no damage to plant), read-out: Pigweed, Redroot damage rating", "result": 20, "unit": "%"},
      {"measurement": "pest or weed control at 62.5 g/ha", "setting": "[12]; 62.5 g ai/ha, evaluated after 13 days, read-out: Pigweed, Redroot damage rating (100=total damage to plant; 0=no damage to plant)", "result": 0, "unit": "%"},
      {"measurement": "pest or weed control at 250 g/ha", "setting": "[12]; 250 g ai/ha, evaluated after 13 days, read-out: damage to plant, Pigweed, Redroot (100=total damage to plant; 0=no damage to plant)", "result": 30, "unit": "%"}
    ]}
  ]
}
